Values of other authors, collected in patent publication US11065260B1, “Method of treatment for reducing pulmonary inflammation in a patient with pathogen infection using oral prostacyclin analog drugs” (priority 2020, dated 2021).

Tests used:
COVID-19 [1] = settings: several small trials
COVID-19 [2] = settings: randomized clinical trial of 199 patients
[3] = patients with pulmonary hypertension and ARDS
[4] = in vivo, po
[5] = human, in vivo, po
pulmonary inflammation = settings: several animal studies
[6] = within 1 hour, pH 7.4 phosphate buffer, optimal formulation
[7] = human, in vivo
[8] = human, in vivo, inhaled or intranasal

In the case of `CCN(CCO)CCCC(C)Nc1ccnc2cc(Cl)ccc12` (stereo not drawn) [hydroxychloroquine], the clinical results (COVID-19 [1]) is given as “mixed results”.
For lopinavir-ritonavir, the clinical benefit (COVID-19 [2]) is given as “No benefit”.
In the case of `CC#CCC(C)[C@H](O)/C=C/[C@@H]1[C@H]2C/C(=C/CCCC(=O)O)C[C@H]2C[C@H]1O` (stereo partly drawn) [iloprost], the gas exchange [3] is given as “improved”, the steady-state serum levels [4] is given as 260 pg/mL and the “adverse effects leading to discontinuation of dose escalation” value [5] is given as “flushing and headache”. The bioavailable dose fraction [5] was “highest”, the “duration of half-maximal serum levels (mean)” value [5] was 2.4 h and the “duration of therapeutic serum levels” value [5] was 2.1 to 5.0 h. The pulmonary inflammation (pulmonary inflammation) was “reduce pulmonary inflammation”, the “in vitro dissolution of the dose” value [6] was 60% and the “IL-2 and RANKL” value (T cells) was “increasing”. The “TNF-α production by T cells” value (T cells) was “reducing”, the “number of T regulatory cells” value (T cells) was “reducing” and the contraindications [7] was “no contraindications”. The side effects [7] was “minimal side effects”, the half-life [8] was 20 to 30 min and the “production of interleukin IL-6” value (human monocytes) was “inhibit”. For the same compound, the “production of intracellular TNF-α” value (human monocytes) was “inhibit”.
